Structures can show the parent of a compound that is named as a salt.

The values below come from patent US20110098296A1, “Thiazole And Oxazole Kinase Inhibitors” (priority 2007, published 2011).

Assay [1] concerns Colo205 tumor cells. In words: Method B: CellTiter-Glo Growth Inhibition Assay, Colo205. In kind it is cell-based. The settings on record: Homo sapiens, COLO 205, 72 h, 3 days. As to the method:
(§1) Human breast tumor cells (BT474) were cultured in RPMI, (Invitrogen, 22400) containing 10% fetal bovine serum (FBS). Human head and neck tumor cells (HN5) were cultured in low glucose DMEM (Invitrogen, 12320) containing 10% FBS. Human colon tumor cells (Colo205) were cultured in DMEM (Invitrogen, 10564) containing 10% FBS. Human melanoma cancer cells (SK-MEL-28) were incubated in DMEM (Invitrogen). All cell lines were maintained at 37° C. in a humidified 5% CO2, 95% air incubator. Cells were harvested using trypsin/EDTA, counted using a haemocytometer, and plated in 30 μL of the appropriate media described above, at the following densities, in a half-area, black-walled, 96-well tissue culture plate (Corning 3882): BT474 3,000 cells/well, HN5 500 cells/well, Colo205 3,000 cells/well, and SK-MEL-28 500 cells/well). The next day, compounds were diluted in DMEM containing […] gentamicin, from 10 mM stock solutions in DMSO. 30 μL/well of these dilutions were added to the 30 μL/well of media currently on the cell plates. Medium containing 0.6% DMSO was added to control wells. The final concentration of DMSO in all wells was 0.3%. Cells were incubated at 37° C., 5% CO2 for 3 days. Cell biomass was estimated using CellTiter-Glo® reagent (Promega G7571). Briefly, plates were removed from the incubator and allowed to equilibrate to rt for 30 minutes. 25-60 μL of CellTiter-Glo® reagent were added to each well of the treated cells and plates were shaken on an orbital plate shaker for 2 mins. Plates were incubated without shaking for 30 more mins and read in a luminometer with an integration time of 0.5 seconds per well. Percent inhibition of cell growth was calculated relative to vehicle-treated control wells. Concentration of compound that inhibits 50% of vehicle control cell growth (IC50) was interpolated using nonlinear regression (Levenberg-Marquardt) and the equation, y=V max*(1−(x/(K+x)))+Y2, where “K” was equal to the IC50.

Assay [2] concerns HN5 tumor cells. Description: Method B: CellTiter-Glo Growth Inhibition Assay, HN5. The settings on record: Homo sapiens, 72 h, 3 days. In kind it is cell-based. As to the method: as §1
Assay [3] relates to BT474 tumor cells. In words: Method B: CellTiter-Glo Growth Inhibition Assay, BT474. In kind it is cell-based. The settings on record: Homo sapiens, BT-474, 72 h, 3 days. As to the method: as §1
The target in assay [4] is T1, ErbB2 (Homo sapiens, UniProt P04626).
T1 construct: made in house; host or cells: baculovirus expression system
T1 sequence (P04626 23-1255): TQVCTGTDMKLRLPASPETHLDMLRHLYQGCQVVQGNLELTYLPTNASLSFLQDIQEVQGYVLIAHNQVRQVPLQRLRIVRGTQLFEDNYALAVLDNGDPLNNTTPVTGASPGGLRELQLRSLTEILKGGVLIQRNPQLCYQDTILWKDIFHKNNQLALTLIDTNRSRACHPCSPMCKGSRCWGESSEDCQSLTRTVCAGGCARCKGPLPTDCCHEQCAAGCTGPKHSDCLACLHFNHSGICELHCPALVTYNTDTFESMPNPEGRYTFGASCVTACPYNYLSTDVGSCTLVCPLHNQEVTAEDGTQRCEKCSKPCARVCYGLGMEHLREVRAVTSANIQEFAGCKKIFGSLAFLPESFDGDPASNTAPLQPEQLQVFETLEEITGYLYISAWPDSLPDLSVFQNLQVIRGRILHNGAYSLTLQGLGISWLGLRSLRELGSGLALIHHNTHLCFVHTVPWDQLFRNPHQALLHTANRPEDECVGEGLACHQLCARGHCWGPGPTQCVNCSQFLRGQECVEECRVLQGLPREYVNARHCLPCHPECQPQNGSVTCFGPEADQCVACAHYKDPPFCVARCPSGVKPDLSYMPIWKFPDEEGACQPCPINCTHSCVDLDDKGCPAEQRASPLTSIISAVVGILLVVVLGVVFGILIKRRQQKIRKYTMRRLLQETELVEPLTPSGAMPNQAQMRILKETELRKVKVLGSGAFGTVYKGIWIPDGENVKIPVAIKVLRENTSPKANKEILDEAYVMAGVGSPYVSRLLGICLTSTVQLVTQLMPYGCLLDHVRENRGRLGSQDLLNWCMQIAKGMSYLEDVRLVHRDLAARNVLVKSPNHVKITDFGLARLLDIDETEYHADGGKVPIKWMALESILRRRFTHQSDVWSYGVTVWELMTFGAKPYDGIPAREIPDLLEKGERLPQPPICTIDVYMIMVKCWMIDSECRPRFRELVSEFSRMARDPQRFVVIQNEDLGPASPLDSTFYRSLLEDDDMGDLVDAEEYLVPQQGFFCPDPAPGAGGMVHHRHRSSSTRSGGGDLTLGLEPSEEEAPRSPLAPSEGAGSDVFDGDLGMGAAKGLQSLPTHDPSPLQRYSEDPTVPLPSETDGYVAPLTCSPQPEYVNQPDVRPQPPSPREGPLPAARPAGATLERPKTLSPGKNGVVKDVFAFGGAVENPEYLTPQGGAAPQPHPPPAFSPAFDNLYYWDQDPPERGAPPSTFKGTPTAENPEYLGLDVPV
In words: ErbB-2 substrate phosphorylation assay (HTRF). In kind it is biochemical. As to conditions: Method (A): Enzyme Mix incubated with compound at 20° C. for 1 hr, reaction started by adding Substrate Mix. The method, boiled down: (§2)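 Baculovirus-expressed kinase (0.8 nM EGFR or 10 nM ErbB2 in enzyme mix) with Peptide C 0.8 μM and ATP 20 μM (substrate-mix levels), MOPS pH 7.5, MnCl2; 90 min, 20 °C, HTRF anti-phosphotyrosine. Method A adds 1 h enzyme–compound preincubation; B none. pIC50, final compound 0.00027–47.6 μM.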

For assay [5], the target named is T2, EGFR (Homo sapiens, UniProt P00533).
T2 construct: made in house; host or cells: baculovirus expression system
T2 sequence (P00533 25-1210): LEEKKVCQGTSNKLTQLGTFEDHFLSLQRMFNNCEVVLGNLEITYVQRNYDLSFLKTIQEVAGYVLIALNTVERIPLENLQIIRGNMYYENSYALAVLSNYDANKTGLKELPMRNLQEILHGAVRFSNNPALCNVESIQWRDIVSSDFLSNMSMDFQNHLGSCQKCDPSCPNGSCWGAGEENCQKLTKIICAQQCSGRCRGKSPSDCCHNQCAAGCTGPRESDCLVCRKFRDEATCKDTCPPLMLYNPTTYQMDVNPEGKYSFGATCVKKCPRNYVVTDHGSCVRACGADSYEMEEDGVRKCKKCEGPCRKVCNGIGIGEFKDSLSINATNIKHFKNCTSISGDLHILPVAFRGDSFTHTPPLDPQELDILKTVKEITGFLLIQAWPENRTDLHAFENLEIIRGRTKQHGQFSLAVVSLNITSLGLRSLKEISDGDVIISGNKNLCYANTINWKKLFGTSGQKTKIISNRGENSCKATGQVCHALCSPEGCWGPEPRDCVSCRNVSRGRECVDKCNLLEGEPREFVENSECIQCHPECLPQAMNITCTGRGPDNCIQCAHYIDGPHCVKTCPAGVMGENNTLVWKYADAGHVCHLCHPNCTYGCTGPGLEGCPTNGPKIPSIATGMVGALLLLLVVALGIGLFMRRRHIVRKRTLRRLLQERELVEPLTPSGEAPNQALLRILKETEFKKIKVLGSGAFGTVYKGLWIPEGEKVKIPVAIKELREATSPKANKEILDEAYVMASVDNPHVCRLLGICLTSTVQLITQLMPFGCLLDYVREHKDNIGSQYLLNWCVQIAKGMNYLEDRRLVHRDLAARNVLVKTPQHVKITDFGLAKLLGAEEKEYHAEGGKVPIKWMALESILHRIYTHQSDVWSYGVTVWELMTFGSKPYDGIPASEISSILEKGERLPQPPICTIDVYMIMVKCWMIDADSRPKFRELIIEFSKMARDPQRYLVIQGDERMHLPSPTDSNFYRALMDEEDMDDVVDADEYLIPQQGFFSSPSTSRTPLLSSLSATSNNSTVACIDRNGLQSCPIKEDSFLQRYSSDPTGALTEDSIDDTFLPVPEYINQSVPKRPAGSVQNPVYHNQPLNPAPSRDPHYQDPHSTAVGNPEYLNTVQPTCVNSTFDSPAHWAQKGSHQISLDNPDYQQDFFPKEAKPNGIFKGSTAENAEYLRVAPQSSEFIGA
In words: EGFR substrate phosphorylation assay (HTRF). In kind it is biochemical. As to conditions: Method (A): Enzyme Mix incubated with compound at 20° C. for 1 hr, reaction started by adding Substrate Mix. The method, boiled down: as §2

Assay [6] concerns BT474 tumor cells. In words: Method C: Cell Growth Inhibition Assay (CellTiter-Glo), BT474. In kind it is cell-based. As to conditions: Homo sapiens, BT-474, 72 h, 3 days, 4-parameter fit.
Assay [7] concerns HN5 tumor cells. Description: Method C: Cell Growth Inhibition Assay (CellTiter-Glo), HN5. As to conditions: Homo sapiens, 72 h, 3 days, 4-parameter fit. In kind it is cell-based. Summed up: (§3)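 Cells were seeded at 500 per well and dosed the next day with nine serial 1:3 compound dilutions (0.2% DMSO final), then grown 3 days at 37° C, 5% CO2. ATP was measured by CellTiter-Glo luminescence, and IC50 was interpolated by 4-parameter fit of percent inhibition versus DMSO controls.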

In assay [8] the test system is HT-29 tumor cells. Description: Method C: Cell Growth Inhibition Assay (CellTiter-Glo), HT-29. In kind it is cell-based. As to conditions: Homo sapiens, HT-29, 72 h, 3 days, 4-parameter fit. Summed up: as §3
Assay [9] has as its system Colo205 tumor cells. In words: Method C: Cell Growth Inhibition Assay (CellTiter-Glo), Colo205. In kind it is cell-based. The settings on record: Homo sapiens, COLO 205, 72 h, 3 days, 4-parameter fit. The method, boiled down:
(§4)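 Luminescent ATP signal (CellTiter-Glo, after 30 min room-temperature equilibration) served as a surrogate for cell number after a 3-day compound exposure at 37° C. Cells were plated at 500/well and treated with serially diluted compound at 0.2% DMSO. IC50 values are 4-parameter fits against DMSO-treated wells.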

Assay [10] has as its system SK-MEL-28 tumor cells. Description: Method C: Cell Growth Inhibition Assay (CellTiter-Glo), SK-MEL-28. In kind it is cell-based. As to conditions: Homo sapiens, SK-MEL-28, 72 h, 3 days, 4-parameter fit. Summed up:
as §3

The test system of assay [11] is A375P F11s tumor cells. In words: Method C: Cell Growth Inhibition Assay (CellTiter-Glo), A375P F11s. In kind it is cell-based. The settings on record: Homo sapiens, 72 h, 3 days, 4-parameter fit. The method, boiled down:
as §3

Assay [12] has as its system SK-MEL-3 tumor cells. In words: Method C: Cell Growth Inhibition Assay (CellTiter-Glo), SK-MEL-3. In kind it is cell-based. The settings on record: Homo sapiens, SK-MEL3, 72 h, 3 days, 4-parameter fit. The method, boiled down:
as §4

Take `Nc1nc(-c2cccc(NC(=O)c3c(F)cccc3F)c2)c(-c2ccnc(Nc3cccc(F)c3)n2)s1` [Example 7]: the IC50 is more than 1000 nM in assay [1]; less than 100 nM in assay [2]; less than 100 nM in assay [3]; less than 100 nM in assay [4]; less than 100 nM in assay [5].

`Nc1nc(-c2cccc(NC(=O)c3c(F)cccc3F)c2)c(-c2ccnc(Nc3cccc(CCS(N)(=O)=O)c3)n2)s1` [Example 8]: the IC50 in assay [1] was 100 to 1000 nM; in assay [2], less than 100 nM; in assay [3] it was less than 100 nM; in assay [4], less than 100 nM; in assay [5], less than 100 nM.

In the case of `Nc1nc(-c2cccc(NC(=O)c3c(F)cccc3F)c2)c(-c2ccnc(Nc3ccc4c(c3)OCC(=O)N4)n2)s1` [Example 9, hydrochloride], the IC50 in [1] was more than 1000 nM; in [2], less than 100 nM; in assay [3] it was less than 100 nM; in assay [4], less than 100 nM; in assay [5], less than 100 nM.

With `COc1ccc(Nc2nccc(-c3sc(N)nc3-c3cccc(NC(=O)c4c(F)cccc4F)c3)n2)cc1N(C)C` [Example 19, N-{3-[2-Amino-5-(2-{[3-(dimethylamino)-4-(methyloxy)phenyl]amino}-4-pyrimidinyl)-1,3-thiazol-4-yl]phenyl}-2,6-difluorobenzamide], the IC50 in assay [1] is 100 to 1000 nM; in [2], less than 100 nM; in assay [3], less than 100 nM; in [4] it was less than 100 nM; in assay [5], less than 100 nM.

With `Nc1nc(-c2cccc(NC(=O)c3c(F)cccc3F)c2)c(-c2ccnc(Nc3ccc4c(c3)NC(=O)CO4)n2)s1` [Example 20, N-[3-(2-Amino-5-{2-[(3-oxo-3,4-dihydro-2H-1,4-benzoxaziN-6-yl)amino]-4-pyrimidinyl}-1,3-thiazol-4-yl)phenyl]-2,6-difluorobenzamide], the 50% inhibitory concentration (IC50) was more than 1000 nM in assay [1]; less than 100 nM in assay [2]; less than 100 nM in assay [3]; less than 100 nM in assay [4]; less than 100 nM in assay [5].

For `O=C(Nc1cccc(-c2nc(NCCCN3CCOCC3)sc2-c2ccnc(Nc3cccc(F)c3)n2)c1)c1c(F)cccc1F` [Example 30, 2,6-Difluoro-N-[3-(5-{2-[(3-fluorophenyl)amino]-4-pyrimidinyl}-2-{[3-(4-morpholinyl)propyl]amino}-1,3-thiazol-4-yl)phenyl]benzamide], the IC50 in assay [1] was more than 1000 nM; in assay [2], 100 to 1000 nM; in [3] it was 100 to 1000 nM; in assay [4] it was less than 100 nM; in assay [5], less than 100 nM.

For the compound `Nc1nc(-c2cccc(NC(=O)Cc3cccs3)c2)c(-c2ccnc(Nc3cccc(F)c3)n2)s1` [Example 64, N-[3-(2-Amino-5-{2-[(3-fluorophenyl)amino]-4-pyrimidinyl}-1,3-thiazol-4-yl)phenyl]-2-(2-thienyl)acetamide], the IC50 in assay [1] is more than 1000 nM; in assay [2], 100 to 1000 nM; in assay [3] it was 100 to 1000 nM; in [4], 100 to 1000 nM; in assay [5], less than 100 nM.

Take `COc1ccc(Nc2nccc(-c3scnc3-c3cccc(NC(=O)Cc4cccs4)c3)n2)cc1OCCN(C)C` [Example 78, N-{3-[5-(2-{[3-{[2-(Dimethylamino)ethyl]oxy}-4-(methyloxy)phenyl]amino}-4-pyrimidinyl)-1,3-thiazol-4-yl]phenyl}-2-(2-thienyl)acetamide]: the IC50 in assay [1] was 100 to 1000 nM; in assay [2], 100 to 1000 nM; in assay [3], 100 to 1000 nM; in [4], less than 100 nM; in [5], less than 100 nM.

For the compound `CN(C)Cc1cccc(Nc2nccc(-c3scnc3-c3cccc(NC(=O)Cc4cccs4)c3)n2)c1` [Example 81], the IC50 in assay [1] is 100 to 1000 nM; in assay [2], 100 to 1000 nM; in assay [3], 100 to 1000 nM; in [4] it was less than 100 nM; in assay [5], less than 100 nM.

In the case of `CCN(CC)CCOc1cccc(Nc2nccc(-c3scnc3-c3cccc(NC(=O)Cc4cccs4)c3)n2)c1` [Example 82, N-[3-(5-{2-[(3-{[2-(Diethylamino)ethyl]oxy}phenyl)amino]-4-pyrimidinyl}-1,3-thiazol-4-yl)phenyl]-2-(2-thienyl)acetamide], the IC50 in [1] was 100 to 1000 nM; in assay [2], 100 to 1000 nM; in assay [3], 100 to 1000 nM; in [4] it was less than 100 nM; in assay [5], less than 100 nM.

Regarding `CN(C)C1Cc2ccc(Nc3nccc(-c4scnc4-c4cccc(NC(=O)Cc5cccs5)c4)n3)cc2C1` (stereo not shown) [Example 83, N-{3-[5-(2-{[2-(Dimethylamino)-2,3-dihydro-1H-inden-5-yl]amino}-4-pyrimidinyl)-1,3-thiazol-4-yl]phenyl}-2-(2-thienyl)acetamide], the 50% inhibitory concentration (IC50) in [1] was 100 to 1000 nM; in [2], 100 to 1000 nM; in assay [3] it was less than 100 nM; in assay [4], less than 100 nM; in assay [5], less than 100 nM.

For the compound `Cc1nc(-c2cccc(NC(=O)c3cc(F)ccc3F)c2)c(-c2ccnc(Nc3ccc(OCCN(C)C)c(F)c3)n2)s1` [Example 128, N-[3-(5-{2-[(4-{[2-(Dimethylamino)ethyl]oxy}-3-fluorophenyl)amino]-4-pyrimidinyl}-2-methyl-1,3-thiazol-4-yl)phenyl]-2,5-difluorobenzamide], the IC50 in assay [6] is 100 to 1000 nM; in assay [7], 100 to 1000 nM; in [8] it was 100 to 1000 nM; in assay [9], more than 1000 nM; in assay [10], more than 1000 nM; in assay [11], more than 1000 nM. Moreover, the IC50 in [4] is less than 100 nM; in assay [12], more than 1000 nM; in assay [5] it was less than 100 nM.

For `Cc1nc(-c2cccc(NC(=O)c3cccc(C(F)(F)F)c3)c2)c(-c2ccnc(Nc3ccc4c(c3)CN(C)CC4)n2)s1` [Example 131, N-[3-(2-Methyl-5-{2-[(2-methyl-1,2,3,4-tetrahydro-7-isoquinolinyl)amino]-4-pyrimidinyl}-1,3-thiazol-4-yl)phenyl]-3-(trifluoromethyl)benzamide], the IC50 in assay [6], in [7], in [8], in assay [9], in [10] and in assay [11] was more than 1000 nM in each case. For the same compound, the half-inhibitory concentration (IC50) in assay [4] is less than 100 nM; in assay [12] it was more than 1000 nM; in assay [5], less than 100 nM.

Consider `Cc1nc(-c2cccc(NC(=O)c3ccc(F)cc3)c2)c(-c2ccnc(Nc3ccc(OCCN(C)C)c(Cl)c3)n2)s1` [Example 134, N-[3-(5-{2-[(3-Chloro-4-{[2-(dimethylamino)ethyl]oxy}phenyl)amino]-4-pyrimidinyl}-2-methyl-1,3-thiazol-4-yl)phenyl]-4-fluorobenzamide], for which the IC50 in [6] was 100 to 1000 nM; in assay [7], 100 to 1000 nM; in [8] it was 100 to 1000 nM; in assay [9], more than 1000 nM; in [10], more than 1000 nM; in assay [11], more than 1000 nM. The figures for the IC50 in assay [4], in assay [12] and in assay [5] were less than 100 nM, more than 1000 nM and less than 100 nM, respectively.
